Residues, ends and D or L forms follow the SMILES beside them. *: point of attachment. Propionyl = CCC(=O)*; NHPh = c1ccc(N*)cc1 Where only a bound is given, the exact number is not on record here.

As for `Cc1cc2c(cc1C1=NNC(=O)CC1C)N(C)C(=O)CO2` (stereo not drawn), the melting point – broadly, the temperature of the solid-liquid transition – fell in the range of 180 to 182 °C.
The figure for `CCCCn1c(=O)c2cc(C(=O)OCC)cn2c2cc(Cl)ccc21` is 172 to 174 °C.
The value for `COc1ccc(S(=O)(=O)Nc2cccnc2Nc2ccccc2C)cc1` was 80 to 81 °C.
In turn, `Cc1oc(-c2ccc(F)cc2)cc1C(=O)Nc1cccc(CSCC(=O)O)c1` showed a melting point of 198 to 199 °C.
The value for `O=c1c(/C=C/c2nnn[nH]2)coc2ccccc12` was 254 to 255 °C; that for `CCCCCCNC(C)=C1C(=O)OC(=O)C(C(C)=O)=C1O` was 80 to 82 °C; that for `CCOC(=O)c1cnc2n(c1=O)C(C)CC=C2NC` (stereo not drawn) was 141 to 142 °C.
The value for `Clc1ccc(Nc2nnc(-c3ccc(-c4ccccc4)cc3)s2)cc1Cl` was 306 °C; that for `COC(=O)C=Cc1ccc(C(=O)Nc2ccncc2)cc1` was 209 to 211 °C.
The figure for `CCOC(=O)CCCNc1cccc(/C=C/c2nc3ccccc3s2)c1` is 68 to 69 °C; for `CC(C)(C)OC(=O)N1CCC(Oc2ccccc2C(C)(C)C)CC1` it is 102 to 103 °C; for `N#Cc1nccn1Cc1cccs1` it is 64 to 65 °C.
Regarding `CCOCc1nc2c(c(C)c(C)n3nnnc23)n1CCNC(=O)C(C)C`, the melting point was 179 to 181 °C.
The compound `Cc1ccc(OCCN2CCN(c3cc(Cl)nnc3Cl)CC2)cc1` registered a melting point of 95 to 96 °C.
The figure for `Cc1ccc(CSC[C@H](NC(=O)C(CS)Cc2ccc(-c3ccccc3)cc2)C(=O)O)cc1` (stereo partly drawn) is 131 to 135 °C.
The value for `O=C(O)CCc1oc(N2CCCC2)nc1-c1ccc(Cl)cc1` was 199 to 200 °C; that for `Cc1cc(C)cc(CC(C)(C)NCC(O)c2cc(O)cc3c2OCC(=O)N3)c1` (stereo not drawn) was 235 to 238 °C; that for `Cc1noc(-c2ccc([C@H]3CN(C(=O)OC(C)(C)C)CCO3)cc2)n1` was 116 °C.
The value for `CCC(=O)N[C@@H](C)C(=O)N1CCC[C@H]1C(=O)Nc1ccccc1` (Propionyl-Ala-Pro-NHPh) was 156 to 157 °C; that for `O=S(=O)(Cc1ccc(O)cc1)Nc1ncc(-c2ccc(O)cc2)nc1Cc1ccccc1` was 194 to 196 °C; that for `CN1CCC(OC2c3ccccc3CCn3c2nc(-c2ccc(Br)cc2)c3Cl)CC1` (stereo not drawn) was 169 °C.
`CCC1COC(NC(=O)c2ccc(Cl)c(Cl)c2)C2CCCCN12` (stereo not drawn): the melting point amounted to 214 °C.
The value for `O=C(O)CCCCCCCCCCn1c(-c2ccccc2)nc(-c2ccccc2)c1-c1ccccc1` was 76 to 78 °C.
The value for `O=C(c1ccccc1F)C1CCN(C(=O)Oc2ccccc2)CC1` was 95 to 96 °C.
The value for `COc1ccc(CN2C(=O)C(CO)(c3ccccc3Cl)c3cc(Cl)ccc32)c(OC)c1` (stereo not drawn) was 165 °C; that for `CC1(C)CC(OC(=O)c2ccccc2)CC(C)(C)N1C#N` was 150 to 152 °C; that for `C[Si](C)(C)C#CC1(OC(=O)c2ccccc2)C(COC(=O)c2ccc(Cl)cc2)OC(OC(=O)c2ccccc2)C1OC(=O)c1ccccc1` (stereo not drawn) was 63 to 66 °C.
With `CN(C)c1ccc(CN2C(=O)C3(COc4cc5c(cc43)OCCO5)c3ccccc32)nc1` (stereo not drawn), the melting point was in the range of 229 to 236 °C.
For `CCn1c(=O)c(=O)[nH]c2ccc([N+](=O)[O-])cc21`, the melting point is over 300 °C.
The value for `CCCC(=O)Nc1c(C)c(C)c2c(c1C)C(c1ccc(C(C)C)cc1)C(C)(C)O2` (stereo not drawn) was 120 to 122 °C.
The figure for `Cc1cc(O)c(C)c(C)c1OC(=O)C(C)(C)C` is 88 to 112 °C.
The value for `COc1ccc2c(c1)C(=O)C(=Cc1ccc(F)cc1)CC2` was 129 to 130 °C; that for `O=C(Nc1c(Cl)cncc1Cl)c1ccc(OC(F)F)c2oc3ccc([N+](=O)[O-])cc3c12` was over 270 °C.
Turning to `O=C(c1cc2ccccc2s1)C1CCN(CCc2ccccc2)CC1`, the melting point was in the range of 129 to 130 °C.
The figure for `Cc1nnc(-c2ccc3occ(-c4ccccc4C)c3c2)o1` is 83 to 84 °C; for `Cc1c(C(=O)O)oc2ccc(Br)c(OC(C)C)c12` it is 182 to 184 °C.
The figure for `COC(=O)c1c(C(=O)NC(C)(C(N)=O)C(C)C)cccc1[N+](=O)[O-]` (stereo not drawn) is 100 to 107 °C; for `CCCN(CCCc1c[nH]c2ccc(F)cc12)C1COc2c(F)ccc(C(N)=O)c2C1` (stereo not drawn) it is 125 °C.
On to `CCNc1cc(C)nc(Oc2c(C)cc(C)cc2C)c1C`, for which the melting point was in the range of 115 to 116 °C.
The value for `CCC12CC3CC(CC(C)(C3)C1)C2` was under 80 °C.
The compound `OC(Cc1ccccc1)Cc1ccccc1` returned a melting point of 107 to 109 °C.
The figure for `Cc1cc(C[C@H]2NC(=O)O[C@H]2c2ccc(F)cc2)cc(OC(F)(F)C(F)F)c1` (racemic) is 107 to 108 °C; for `Cc1nc2[nH]c(=O)[nH]c2cc1-c1ccc(N)cc1` it is 277 to 283 °C.
The figure for `CCOC(=O)C1=C(C)NC2(C)ON=C(C)C2C1c1ccccc1[N+](=O)[O-]` (stereo not drawn) is 212 °C.
The figure for `COc1cc(COc2nn(-c3ccccc3)cc2/C=C/c2nc(C)cs2)ccc1OCc1nc(-c2ccco2)oc1C` is 130 to 131 °C; for `CCCCc1nc2cccc(O)c2n1Cc1ccc(-c2ccccc2-c2nnn[nH]2)cc1` it is 186 to 188 °C.
`COC(=O)C1=C(C)NC(=O)N(C(=O)OC(C)C)C1c1cccc(Cl)c1Cl` (stereo not drawn) gave a melting point of 162 to 163 °C.
The figure for `CN(C)C=C(C#N)C(=O)c1cccc(Oc2ccccc2)c1` is 80 to 82 °C; for `CCn1ncc2c(Cl)c3cc(S(C)(=O)=O)ccc3nc21` it is 158 to 160 °C.
The value for `CCOC(=O)Nc1cc(-c2cccc3ccccc23)c2nc(C(=O)O)ccc2c1` was 205 to 208 °C; that for `c1cn(-c2nc(N3CCOCC3)nc(-n3ccnc3)n2)cn1` was 268 to 270 °C; that for `N#Cc1ccc(N2CCN(Cc3cnc4c(c3)NC(=O)[C@@H]3CCCN43)CC2)nc1` was 252 to 256 °C.
The figure for `CNC(=S)C1=C(O)C(C)(COC)Oc2ccc([N+](=O)[O-])cc21` (stereo not drawn) is 139 to 141 °C; for `OCc1cnn(-c2ccc(OC(F)(F)F)cc2)c1` it is 73 to 74 °C; for `CC(=O)NNc1nnc(-c2ccccc2)c(-c2ccccc2)n1` it is 166 to 168 °C.
`COc1ccc(-c2ncccc2O)cc1OC` yielded a melting point of 150 to 155 °C.
Regarding `O=C(c1cccnc1)c1ccc([N+](=O)[O-])c(CO)c1`, the melting point was 184 °C.
The figure for `O=S1(=O)c2cccc3cccc(c23)N1CCCN1CCC(c2ccc(Cl)cc2)CC1` is 111 °C; for `CN1CC2=C(n3cncc3C1)S(=O)C=C2` (stereo not drawn) it is 160 to 163 °C; for `CCC(C)(NC(=O)C1=C(C(=O)Nc2cc(OC3CCCC3)c(Cl)cc2F)CCCC1)c1ccc(Cl)cc1` (stereo not drawn) it is 200 to 201 °C.
The value for `N#CSc1ccc(NC(=O)OCc2cccnc2)cc1` was 188 to 191 °C; that for `COCc1c(C(=O)OC(C)C)ncc2c1c1c(OCc3ccccc3)cccc1n2CC(=O)N(C)Cc1ccccc1` was 155 to 157 °C.
For `CC(C(=O)O)C(=O)c1ncc(Cl)cc1F` (stereo not drawn), the melting point is 101 to 102 °C.

The values above are taken from a melting point compilation (Tetko et al.; mined from patent text by program, amines drawn as free bases though some values may be those of a salt).
